Results taken from patent US20150139959A1 (priority 2009, published 2015).

How the values were obtained:
[1] = 14-day daily gavage toxicity study, body and organ weights; conditions: for Feed efficacy (Body weight gain/Food Consumption) / Final body weight: 14 days
Caco-2 cells = assay type: cell-based, Human
3T3 mouse fibroblasts = assay type: cell-based

| SMILES | Food Consumption during the 14 days ([1]; 25 mg/kg bw) [g] | Feed efficacy (Body weight gain/Food Consumption) ([1]; 25 mg/kg bw) | Final body weight ([1]; 25 mg/kg bw) [g] | Food Consumption during the 14 days ([1]; 100 mg/kg bw) [g] | Feed efficacy (Body weight gain/Food Consumption) ([1]; 100 mg/kg bw) | Final body weight ([1]; 100 mg/kg bw) [g] | MTT bioassay IC50 (95% Confidence Interval) (Caco-2 cells) | BrdU bioassay IC50 (95% Confidence Interval) (3T3 mouse fibroblasts) | Food Consumption during the 14 days ([1]; 2 mg/kg bw) [g] | Feed efficacy (Body weight gain/Food Consumption) ([1]; 2 mg/kg bw) |
| --- | --- | --- | --- | --- | --- | --- | --- | --- | --- | --- |
| CC1=C[C@H]2O[C@@H]3[C@H](O)C[C@](C)([C@@]2(CO)[C@H](O)C1=O)[C@]31CO1 [3-epi-DON] | 85.860 | 0.0475 | 21.390 | 85.760 | 0.0413 | 21.680 | 146 (100, 212) μg/mL | 281 (156, 505) μg/mL |  |  |
| CC1=C[C@H]2O[C@@H]3[C@H](O)C[C@](C)([C@@]2(CO)[C@H](O)C1=O)[C@]31CO1 [DON, Deoxynivalenol, reference compound] |  |  |  |  |  |  | 0.409 (0.324, 0.518) μg/mL | 0.238 (0.162, 0.349) μg/mL | 81.090 | 0.0252 |
